According to patent publication US20230286973A1, “PROTEIN SECRETION INHIBITORS” (KEZAR LIFE SCIENCES, priority 2020, published 2023):
Read-outs that look alike come from different tables or passages of the source.

Columns and labels:
[1] = Liver Microsome Stability Assay (rat); settings: rat liver microsomes, with NADPH, 1.0 uM compound
Procedure: (§2) Stability of a compound was assessed in the presence of liver microsomes from various sources—mouse, rat, monkey and human liver microsomes. 1.0 uM compound, 0.4% DMSO in 0.1 M Potassium Phosphate with 1.0 mg/mL liver microsomes, were incubated at 37° C. with or without 1 mM NADPH. The samples were quenched at 0, and 30 minutes.

[2] = Liver Microsome Stability Assay (mouse); settings: mouse liver microsomes, with NADPH, 1.0 uM compound
Procedure: as §2

[3] = Liver Microsome Stability Assay (human); settings: human liver microsomes, with NADPH, 1.0 uM compound
Procedure: as §2

[4] = Liver Microsome Stability Assay (monkey); settings: monkey liver microsomes, with NADPH, 1.0 uM compound
Procedure: as §2

[5] = test system: PD1-ss+10aa/Gaussia Luciferase; assay: Dox-Induced PD1-ss-Gluc Assay; type: cell-based; settings: 24 hr Dox induction, 293FRT/TO cells, read-out: 24 hr Dox Inducible PD1ssGluc 293FRT/TO: Mean IC50
Text: Flp-In 293 T-REx™ cells were transfected with pcDNA™5/FRT/TO plasmid inserted with cDNA encoding Gaussia Luciferase fused to the 3′ end of cDNA encoding PD1 signal sequence plus 10 amino acids (N-[…]-C) (SEQ ID NO: 1). Transfected cells were selected for resistance to the selectable markers Hygromycin and Blasticidin to create a stable cell line that contained the PD1-ss+10aa/Gaussia Luciferase cDNA insert whose expression was regulated under the T-REx™ system. The day before assay, cells were trypsinized and plated in 384-well tissue culture plates. The next day, compound dilutions in DMSO/media containing doxycycline were added to the wells and incubated at 37° C., 5% CO2.
(§1) For chemical structures that include one or more stereoisomers, but are illustrated without indicating stereochemistry, the assay data refers to a mixture of stereoisomers.

[6] = test system: IL-2-FL/Gaussia Luciferase; assay: Dox Induced IL2-FL-Gluc Assay; type: cell-based; settings: for IC50: 24 hr Dox induction, 293FRT/TO cells, read-out: 24 hr Dox Inducible IL2FLGluc 293FRT/TO: Mean IC50; for 24 hr Dox Inducible IL2FLGluc 293FRT/TO: IL2/PD1: ratio of IL2FLGluc IC50 to PD1ssGluc IC50
Text: Flp-In 293 T-REx™ cells were transfected with pcDNA™5/FRT/TO plasmid inserted with cDNA encoding Gaussia Luciferase fused to the 3′ end of cDNA encoding full length IL-2 (amino acids 1-153). Transfected cells were selected for resistance to the selectable markers Hygromycin and Blasticidin to create a stable cell line that contained the IL-2-FL/Gaussia Luciferase cDNA insert whose expression was regulated under the T-REx™ system. The day before assay, cells were trypsinized and plated in 384-well tissue culture plates. The next day, compound dilutions in DMSO/media containing doxycycline were added to the wells and incubated at 37° C., 5% CO2.
as §1

[7] = '<=>' given where both are I.A.

Liver Microsome Stability (Multiple Species): Rat - % Remaining after 30 min w/NADPH [1] [%] | Liver Microsome Stability (Multiple Species): Mouse - % Remaining after 30 min w/NADPH [2] [%] | Liver Microsome Stability (Multiple Species): Human - % Remaining after 30 min w/NADPH [3] [%] | Liver Microsome Stability (Multiple Species): Monkey - % Remaining after 30 min w/NADPH [4] [%] | IC50 [5] [nM] | IC50 [6] [nM] | IC50 ([5]; mean) [nM] | IC50 ([6]; mean) [nM] | SMILES | 24 hr Dox Inducible IL2FLGluc 293FRT/TO: IL2/PD1 [6] | 24 hr Dox Inducible IL2FLGluc 293FRT/TO: IL2/PD1 [6, 7]
0.2 | 0.15 | 0.07 | 0.08 |  |  |  |  | N#CC[C@@H]1CC[C@H]1Cn1cccc1C(=O)Nc1nc([C@H]2CCCN2c2ccccc2)cs1 [Compound C18, 1-(((1R,2S)-2-(cyanomethyl)cyclobutyl)methyl)-N-(4-((R)-1-phenylpyrrolidin-2-yl)thiazol-2-yl)-1H-pyrrole-2-carboxamide] |  | 
3.9 | 3.48 | 3.59 | 8.4 |  |  |  |  | N#CCC1(Cn2cccc2C(=O)Nc2nc([C@H]3CCCN3c3ccccc3)cs2)COC1 [Compound C19, (R)-1-((3-(cyanomethyl)oxetan-3-yl)methyl)-N-(4-(1-phenylpyrrolidin-2-yl)thiazol-2-yl)-1H-pyrrole-2-carboxamide] |  | 
10.6 | 4.75 | 15.3 | 15 |  |  |  |  | CC(CC#N)Cn1cccc1C(=O)Nc1nc([C@H]2CCCN2c2ccccc2)cs1 (stereo partly drawn) [Compound C20, 1-(3-cyano-2-methylpropyl)-N-(4-((R)-1-phenylpyrrolidin-2-yl)thiazol-2-yl)-1H-pyrrole-2-carboxamide] |  | 
 |  |  |  |  |  | 7970 | > 25000 | O=C(Nc1nc([C@H]2CCCN2c2ccccc2)cs1)c1cccn1CCCCc1cnn[nH]1 [Compound C26, (R)-1-(4-(1H-1,2,3-triazol-5-yl)butyl)-N-(4-(1-phenylpyrrolidin-2-yl)thiazol-2-yl)-1H-pyrrole-2-carboxamide] |  | >3.1
 |  |  |  |  |  | 17.5 | 56.8 | O=C(Nc1nc([C@H]2CCCN2c2ccccc2)cs1)c1cccn1Cc1ccncc1F [Compound E27, (R)-1-((3-fluoropyridin-4-yl)methyl)-N-(4-(1-phenylpyrrolidin-2-yl)thiazol-2-yl)-1H-pyrrole-2-carboxamide] |  | 3.2
1.92 | 1.59 | 0.09 | 0.09 |  |  |  |  | O=C(Nc1nc([C@H]2CCCN2C2COC2)cs1)c1cccn1Cc1ccncc1 [Compound E49, (R)-N-(4-(1-(oxetan-3-yl)pyrrolidin-2-yl)thiazol-2-yl)-1-(pyridin-4-ylmethyl)-1H-pyrrole-2-carboxamide] |  | 
 |  |  |  |  |  | 315 | 2980 | CC(C)c1cccc(/C=C/c2csc(NC(=O)c3cccn3Cc3ccncc3)n2)n1 [Compound E55, (E)-N-(4-(2-(6-isopropylpyridin-2-yl)vinyl)thiazol-2-yl)-1-(pyridin-4-ylmethyl)-1H-pyrrole-2-carboxamide] |  | 9.5

Continued, molecule first:

SMILES | Liver Microsome Stability (Multiple Species): Rat - % Remaining after 30 min w/NADPH [1] [%] | Liver Microsome Stability (Multiple Species): Mouse - % Remaining after 30 min w/NADPH [2] [%] | Liver Microsome Stability (Multiple Species): Human - % Remaining after 30 min w/NADPH [3] [%] | Liver Microsome Stability (Multiple Species): Monkey - % Remaining after 30 min w/NADPH [4] [%] | IC50 [5] [nM] | IC50 [6] [nM] | IC50 ([5]; mean) [nM] | IC50 ([6]; mean) [nM] | 24 hr Dox Inducible IL2FLGluc 293FRT/TO: IL2/PD1 [6] | 24 hr Dox Inducible IL2FLGluc 293FRT/TO: IL2/PD1 [6, 7]
O=C(Nc1nc([C@H]2CCCN2c2ccc(OC3CCNCC3)cc2)cs1)c1cccn1Cc1ccncc1 [Compound A6, (R)-N-(4-(1-(4-(piperidin-4-yloxy)phenyl)pyrrolidin-2-yl)thiazol-2-yl)-1-(pyridin-4-ylmethyl)-1H-pyrrole-2-carboxamide] | 44.8 | 37.4 | 25.7 | 25.4 |  |  |  |  |  | 
CCc1ccc(N2CCC[C@@H]2c2csc(NC(=O)c3cccn3Cc3ccncc3)n2)cc1 [Compound A22, (R)-N-(4-(1-(4-ethylphenyl)pyrrolidin-2-yl)thiazol-2-yl)-1-(pyridin-4-ylmethyl)-1H-pyrrole-2-carboxamide] | 11.7 | 15.8 | 29.1 | 17.6 |  |  |  |  |  | 
CC(C)c1ccc(N2CCC[C@@H]2c2csc(NC(=O)c3cccn3Cc3ccncc3)n2)cc1 [Compound A23, (R)-N-(4-(1-(4-isopropylphenyl)pyrrolidin-2-yl)thiazol-2-yl)-1-(pyridin-4-ylmethyl)-1H-pyrrole-2-carboxamide] | 40.2 | 25.3 | 24.7 | 29.9 |  |  |  |  |  | 
O=C(Nc1nc([C@H]2CCCN2c2ccc(C3CC3)cc2)cs1)c1cccn1Cc1ccncc1 [Compound A24, (R)-N-(4-(1-(4-cyclopropylphenyl)pyrrolidin-2-yl)thiazol-2-yl)-1-(pyridin-4-ylmethyl)-1H-pyrrole-2-carboxamide] | 35.9 | 19.9 | 22.4 | 22.5 |  |  |  |  |  | 
O=C(Nc1nc([C@H]2CCCN2c2cnccn2)cs1)c1cccn1Cc1ccncc1 [Compound A30, (R)-N-(4-(1-(pyrazin-2-yl)pyrrolidin-2-yl)thiazol-2-yl)-1-(pyridin-4-ylmethyl)-1H-pyrrole-2-carboxamide] | 0.21 | 0.86 | 0.27 | 0.03 |  |  |  |  |  | 
O=C(Nc1nc([C@H]2CCCN2c2ncccn2)cs1)c1cccn1Cc1ccncc1 [Compound A32, (R)-1-(pyridin-4-ylmethyl)-N-(4-(1-(pyrimidin-2-yl)pyrrolidin-2-yl)thiazol-2-yl)-1H-pyrrole-2-carboxamide] | 0.55 | 0.17 | 0.24 | 0.05 |  |  |  |  |  | 
CC1=NC(/C=C/c2csc(NC(=O)c3cccn3Cc3ccncc3)n2)CO1 (stereo not shown) [Compound B14] | 3.31 | 2.9 | 3.9 | 6.02 |  |  |  |  |  | 
CN1C(=O)OCC1/C=C/c1csc(NC(=O)c2cccn2Cc2ccncc2)n1 (stereo not shown) [Compound B15, (E)-N-(4-(2-(3-methyl-2-oxooxazolidin-4-yl)vinyl)thiazol-2-yl)-1-(pyridin-4-ylmethyl)-1H-pyrrole-2-carboxamide] | 0.28 | 0.34 | 0.11 | 0.4 |  |  |  |  |  | 
CN1C(=O)CCCC1/C=C/c1csc(NC(=O)c2cccn2Cc2ccncc2)n1 (stereo not shown) [Compound B19, (E)-N-(4-(2-(1-methyl-6-oxopiperidin-2-yl)vinyl)thiazol-2-yl)-1-(pyridin-4-ylmethyl)-1H-pyrrole-2-carboxamide] | 1.18 | 0.83 | 0.05 | 0.03 |  |  |  |  |  | 
Cn1ccnc1/C=C/c1csc(NC(=O)c2cccn2Cc2ccncc2)n1 [Compound B20, (E)-N-(4-(2-(1-methyl-1H-imidazol-2-yl)vinyl)thiazol-2-yl)-1-(pyridin-4-ylmethyl)-1H-pyrrole-2-carboxamide] |  |  |  |  | 5420 | > 25000 |  |  | >4.6 | 
